From ChEMBL document CHEMBL1201862, “PubChem BioAssay data set” (2004) come the findings set out here.

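Exposure lasted 48 hours, with cells grown in 96-well plates and compounds tested at five concentrations. At the GI50, growth is halved.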 Active and inactive are the calls of the source. Cut-off read from the data, not from the text of the source: active = GI50 up to about 1.1 µM and inactive = higher. Bounds are passed on as bounds.

What all share (assay): growth of human tumour cells (NCI), 48 h
The test system of experiment [1] is HCC 2998.
For experiment [2], the system named is NCI-H522.
The subject of experiment [3] is MCF7.
For experiment [4], the system named is NCI-H23.
The subject of experiment [5] is HCT-15.
Experiment [6] has as its system U-251.
Experiment [7] has as its system DU-145.
The subject of experiment [8] is EKVX.
Experiment [9] relates to RPMI-8226.
The subject of experiment [10] is HOP-92.
Experiment [11] deals with SF-268.
Experiment [12] has as its system Hs-578T.
For experiment [13], the system named is SW-620.
Experiment [14] concerns SNB-19.
The test system of experiment [15] is SF-295.
Experiment [16] has as its system SK-MEL-28.
The test system of experiment [17] is TK-10.
The test system of experiment [18] is COLO 205.
The subject of experiment [19] is MOLT-4.
Experiment [20] has as its system BT-549.

`Cc1cccc2c1c(=O)c1c(O)cc(O)cc1n2C`: the GI50 in [1] was > 100 µM (inactive); in experiment [2] it was 97.7 µM (inactive); in experiment [3], > 100 µM (inactive); in [4] it was > 100 µM (inactive); in experiment [5], greater than 100 µM; in experiment [6], > 100 µM (inactive). Moreover, the GI50 was > 100 µM (inactive) in experiment [7]; 85.1 µM (inactive) in experiment [8]; > 100 µM (inactive) in experiment [9]; 92.9 µM (inactive) in experiment [10]; > 100 µM (inactive) in experiment [11]; 33.8 µM (inactive) in experiment [12]. Besides, the GI50 in experiment [13] was > 100 µM (inactive); in experiment [14], > 100 µM (inactive); in [15], 89.1 µM (inactive); in [16], > 100 µM (inactive); in experiment [17], > 100 µM (inactive); in experiment [18], 30 µM (inactive). The GI50 in [19] was 70.5 µM (inactive); in experiment [20], > 100 µM (inactive).

As for `COn1cc(C=O)c2ccccc21`, the GI50 is 21.8 µM (inactive) in experiment [1]; 38.6 µM (inactive) in experiment [2]; 45.2 µM (inactive) in [3]; > 100 µM (inactive) in experiment [4]; greater than 70.5 µM in experiment [5]; 55.6 µM (inactive) in experiment [6]. Also, the GI50 in [7] was > 82 µM (inactive); in experiment [8] it was 23.7 µM (inactive); in experiment [9], > 68.1 µM (inactive); in experiment [10], > 68.9 µM (inactive); in experiment [11], 68.4 µM (inactive); in [12], 37.4 µM (inactive). In addition, the GI50 in experiment [13] is 26 µM (inactive); in experiment [14], 69.7 µM (inactive); in experiment [15], 44.1 µM (inactive); in [16], 33.6 µM (inactive); in experiment [17], > 54.3 µM (inactive); in [18], > 100 µM (inactive). Moreover, the GI50 in experiment [19] is 33.2 µM (inactive); in experiment [20], > 100 µM (inactive).

As to `CC(=O)O[C@@]12[C@@H]3O[C@@]4(O)C[C@]5(C)[C@H]6C[C@@](C(C)C)(O[C@H]5c5ccoc5)O[C@H]1[C@]6(C4)O[C@]2(O)C(C)=CC3(C)C`, the GI50 in experiment [1] is > 100 µM (inactive); in [2], 78.5 µM (inactive); in [3] it was > 100 µM (inactive); in experiment [4] it was > 100 µM (inactive); in [5], greater than 100 µM; in experiment [6], > 100 µM (inactive). Further, the GI50 in [7], in [8], in [9], in [10], in experiment [11] and in experiment [12] was > 100 µM (inactive) throughout. Further, the GI50 in experiment [13] is > 100 µM (inactive); in [14] it was 63.2 µM (inactive); in experiment [15], > 100 µM (inactive); in [16], > 100 µM (inactive); in experiment [17], > 100 µM (inactive); in experiment [18], > 100 µM (inactive). Further, the GI50 in experiment [19] and in experiment [20] was > 100 µM (inactive) in each case.

`COc1ccc(C2OC(=O)c3ccc4ccccc4c32)c(C)c1` (stereo not given): the GI50 in experiment [1] is 3.85 µM (inactive); in [2], 4.42 µM (inactive); in [3], 5.65 µM (inactive); in [4] it was 9.53 µM (inactive); in [5], 4.1 µM; in experiment [6], 4.86 µM (inactive). In addition, the GI50 in experiment [7] is 22.2 µM (inactive); in experiment [8] it was 18.8 µM (inactive); in experiment [9], 11.1 µM (inactive); in experiment [10], 10.9 µM (inactive); in [11], 45.2 µM (inactive); in experiment [12], 10.2 µM (inactive). The GI50 in experiment [13] was 3.96 µM (inactive); in experiment [14], 14.7 µM (inactive); in experiment [15], 2.98 µM (inactive); in experiment [16], 11.9 µM (inactive); in [17] it was 15.2 µM (inactive); in [18], 4.36 µM (inactive). The GI50 in experiment [19] was 7.73 µM (inactive); in experiment [20] it was 19.5 µM (inactive).

Take `CC(C)=C1C(=O)C[C@]2(C)C[C@H]3O[C@]3(C)CC[C@@H]3O[C@@]3(C)CC[C@@H]12`: the GI50 in experiment [1] was > 50 µM (inactive); in experiment [2], 34 µM (inactive); in [3], > 50 µM (inactive); in [4], > 50 µM (inactive); in experiment [5], greater than 50 µM; in [6], > 50 µM (inactive). Moreover, the GI50 in experiment [7], in experiment [8], in [9], in [10], in [11] and in [12] was > 50 µM (inactive) throughout. Also, the GI50 in experiment [13], in experiment [14], in experiment [15], in experiment [16], in experiment [17] and in experiment [18] was > 50 µM (inactive) throughout. In addition, the GI50 in [19] and in [20] was > 50 µM (inactive) each time.

Consider `COc1ccc(CNc2nc3ccccc3nc2C(=O)O)cc1`, for which the GI50 is > 100 µM (inactive) in experiment [1]; 72.9 µM (inactive) in experiment [2]; > 100 µM (inactive) in [3]; > 100 µM (inactive) in experiment [4]; 23.1 µM in [5]; 58.6 µM (inactive) in experiment [6]. In addition, the GI50 in experiment [7] is 66.4 µM (inactive); in [8] it was 78.2 µM (inactive); in experiment [9], 21.7 µM (inactive); in experiment [10], 70.5 µM (inactive); in experiment [11], > 100 µM (inactive); in experiment [12] it was > 100 µM (inactive). Moreover, the GI50 in [13] was > 100 µM (inactive); in [14] it was > 100 µM (inactive); in [15] it was 51.4 µM (inactive); in [16] it was > 100 µM (inactive); in experiment [17], > 100 µM (inactive); in [18], 71.6 µM (inactive). For the same compound, the values for the GI50 in [19] and in experiment [20] were > 10 µM (inactive) and > 100 µM (inactive), respectively.

As to `Cn1c2c(c3ccccc31)CC1c3c(c4ccccc4n3C)CC21` (stereo not given), the GI50 in experiment [1] was > 100 µM (inactive); in experiment [2] it was > 100 µM (inactive); in [3], > 100 µM (inactive); in [4], > 100 µM (inactive); in experiment [5] it was greater than 100 µM; in [6], > 100 µM (inactive). The GI50 in experiment [7], in experiment [8], in experiment [9], in experiment [10], in [11] and in [12] was > 100 µM (inactive) throughout. The GI50 in experiment [13], in [14], in [15], in experiment [16], in experiment [17] and in [18] was > 100 µM (inactive) throughout. Also, the GI50 in experiment [19] and in [20] was > 100 µM (inactive) each time.

Regarding `O=C1/C(=C/c2cccc([N+](=O)[O-])c2)N=C(c2ccccc2)N1c1ccc2c(c1)Sc1cc(N3C(=O)/C(=C/c4cccc([N+](=O)[O-])c4)N=C3c3ccccc3)ccc1N2`, the GI50 in experiment [1] was > 100 µM (inactive); in experiment [2], 19.1 µM (inactive); in experiment [3], 19.2 µM (inactive); in [4] it was 30.8 µM (inactive); in [5] it was greater than 100 µM; in experiment [6] it was 24.7 µM (inactive). In addition, the GI50 was 36.7 µM (inactive) in experiment [7]; 25.4 µM (inactive) in experiment [8]; 26.7 µM (inactive) in experiment [9]; 28.1 µM (inactive) in experiment [10]; 20.1 µM (inactive) in [11]; 30.2 µM (inactive) in experiment [12]. For the same compound, the GI50 in experiment [13] was 31.2 µM (inactive); in experiment [14] it was 21.2 µM (inactive); in [15] it was 14 µM (inactive); in experiment [16], 47.9 µM (inactive); in experiment [17] it was 19.6 µM (inactive); in [18], 40.9 µM (inactive). Also, the figures for the GI50 in experiment [19] and in [20] were 36.9 µM (inactive) and 23 µM (inactive), respectively.

Turning to `Cc1cc(S(=O)(=O)Nc2cc(N)n[nH]2)c(SCc2nc(N)nc(N(C)C)n2)cc1Cl`, the GI50 is > 10 µM (inactive) in [1]; > 10 µM (inactive) in [2]; > 10 µM (inactive) in experiment [3]; > 10 µM (inactive) in [4]; greater than 10 µM in experiment [5]; > 10 µM (inactive) in experiment [6]. Besides, the GI50 in experiment [7], in [8], in [9], in [10], in [11] and in [12] was > 10 µM (inactive) throughout. For the same compound, the GI50 in experiment [13], in experiment [14], in experiment [15], in experiment [16], in experiment [17] and in experiment [18] was > 10 µM (inactive) throughout. Moreover, the GI50 in [19] and in experiment [20] was > 10 µM (inactive) in each case.

`CN1CCN(C)C12C=c1ccccc1=CC21CC1`: the GI50 is 16.3 µM (inactive) in [1]; 24.5 µM (inactive) in [2]; 35.4 µM (inactive) in experiment [3]; > 100 µM (inactive) in experiment [4]; 32.8 µM in experiment [5]; 37.8 µM (inactive) in experiment [6]. Further, the GI50 in experiment [7] is > 100 µM (inactive); in experiment [8], > 95.9 µM (inactive); in experiment [9], 30 µM (inactive); in experiment [10], 28.7 µM (inactive); in experiment [11], 29.7 µM (inactive); in experiment [12], 21.9 µM (inactive). The GI50 in experiment [13] was 22.2 µM (inactive); in [14], > 83.8 µM (inactive); in experiment [15], > 77.6 µM (inactive); in experiment [16] it was 20.7 µM (inactive); in experiment [17], 66.7 µM (inactive); in [18] it was 15.7 µM (inactive). In addition, the GI50 in [19] is 21.6 µM (inactive); in experiment [20] it was 41 µM (inactive).
